# The supplement of paper PMC11208160
# Assay: recombinant barcode read abundance after kanamycin selection (control-corrected) (log10(CPM+1)); higher = more efficient recombination; sequences stand for … in AGTGCAGAGAAAATCGGCCAGTTTTCTCTGCCTGCAGTCCGCATGCCGT…AGATTTATGCAGCGGACTGCCTTTCTCCCAAAGTGATAAACCGGACAGTATCATGGACCGGTTTTCCCGGTAATCCGTATTTGCAAGGTTGGTTTCACT; site = the 11-nt target
# How it was run: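 Reported as log10(CPM+1), each value stands for recombination efficiency. That efficiency is the averaged, control-corrected counts per million of barcodes found at recombinant junctions. Cells from a pooled E. coli library pairing targets with IS621 bridge RNA target-binding loops were plated twice on chloramphenicol/ampicillin LB agar (control) and twice on chloramphenicol/ampicillin/kanamycin with 0.1 mM IPTG.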
# 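Further: IS621 recombinase and bridge RNA in Escherichia coli cells.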
row,Sequence,recombinant barcode read abundance (log10)
1,TCTCGGTCTTGGGTTCTAACCTGTTGCCT (site TCACGGTCTAG),0.71
2,TCTCGGTCTTGGGTTCTAACCTGTTGCCT (site TCTCGGTCTAG),0.277
3,TCTCGTTCTTGGGTTCTAACCTGTTGCTA (site AGAGTAACTGT),0.127
4,TCTCGTTCTTGGGTTCTAACCTGTTGCTA (site TCTCGTTCTTA),0.102
5,TCTGATTCTTGGGTTCTAACCTGTTGCCG (site TCTGATTCTCG),0.197
6,TCTGATTCTTGGGTTCTAACCTGTTGCCG (site TCTTATTCTAG),0.133
7,TCTGATTCTTGGGTTCTAACCTGTTGCGT (site TCTAATTCTAC),0.352
8,TCTGATTCTTGGGTTCTAACCTGTTGCGT (site TCTCATTCTAC),0.00698
9,TCTGATTCTTGGGTTCTAACCTGTTGCGT (site TCTGATTCTAC),1.4
10,TCTGATTCTTGGGTTCTAACCTGTTGCGT (site TCTTATTCTAC),0.212
11,TCTGGCACTTGGGTTCTAACCTGTTGCCT (site TCCAGCACTAG),0.205
12,TCTGGCACTTGGGTTCTAACCTGTTGCCT (site TCTGGCACTAG),0.0487
13,TCTGGCCCTTGGGTTCTAACCTGTTGCCT (site CACCCTTCTGA),0.124
14,TCTGGCCCTTGGGTTCTAACCTGTTGCCT (site TCTGGCCCTAG),0.478
15,TCTGTATCTTGGGTTCTAACCTGTTGCCT (site ACTGTATCTAG),0.28
16,TCTGTATCTTGGGTTCTAACCTGTTGCCT (site CCTGTATCTAG),0.0921
17,TCTGTATCTTGGGTTCTAACCTGTTGCCT (site GCTGTATCTAG),0.152
18,TCTGTATCTTGGGTTCTAACCTGTTGCCT (site TCTGTATCTAG),0.614
19,TCTTAGACTTGGGTTCTAACCTGTTGCCG (site TCTTAGACTAG),0.231
20,TCTTAGACTTGGGTTCTAACCTGTTGCCG (site TCTTAGACTCG),0.232
21,TCTTAGACTTGGGTTCTAACCTGTTGCCT (site TCTTAGACTAG),0.0224
22,TCTTAGACTTGGGTTCTAACCTGTTGCCT (site TCTTAGACTCG),0.0132

row,Sequence,recombinant barcode read abundance (log10)
1,TCTTAGACTTGGGTTCTAACCTGTTGCTT (site TCTTAGACTAA),0.17
2,TCTTAGACTTGGGTTCTAACCTGTTGCTT (site TGTTGGACTAA),0.0581
3,TCTTCCACTTGGGTTCTAACCTGTTGCCT (site ACTTCCACTAG),0.0827
4,TCTTCCACTTGGGTTCTAACCTGTTGCCT (site CCTTCCACTAG),0.0781
5,TCTTCCACTTGGGTTCTAACCTGTTGCCT (site GCTTCCACTAG),0.0327
6,TCTTCCACTTGGGTTCTAACCTGTTGCCT (site TCTTCCACTAG),0.385
7,TCTTCGACTTGGGTTCTAACCTGTTGCAG (site GGAAAAGCTAA),0.0479
8,TCTTCGACTTGGGTTCTAACCTGTTGCAG (site TCTTCGACTCT),0.111
9,TCTTTACCTTGGGTTCTAACCTGTTGCCT (site ACTTTACCTAG),0.146
10,TCTTTACCTTGGGTTCTAACCTGTTGCCT (site CCTTTACCTAG),0.182
11,TCTTTACCTTGGGTTCTAACCTGTTGCCT (site GCTTTACCTAG),0.043
12,TCTTTACCTTGGGTTCTAACCTGTTGCCT (site TCTTTACCTAG),0.0757
13,TGAAATCCTTGGGTTCTAACCTGTTGCCT (site GGATATCCTAG),0.848
14,TGAAATCCTTGGGTTCTAACCTGTTGCCT (site TGAAATCCTAG),0.304
15,TGAATTACTTGGGTTCTAACCTGTTGCCT (site TGAAATACTAG),0.116
16,TGAATTACTTGGGTTCTAACCTGTTGCCT (site TGAACTACTAG),0.108
17,TGAATTACTTGGGTTCTAACCTGTTGCCT (site TGAAGTACTAG),0.033
18,TGAATTACTTGGGTTCTAACCTGTTGCCT (site TGAATTACTAG),0.102
19,TGACGTCCTTGGGTTCTAACCTGTTGCCT (site TGACGTCCTAA),0.455
20,TGACGTCCTTGGGTTCTAACCTGTTGCCT (site TGACGTCCTAC),0.315
21,TGACGTCCTTGGGTTCTAACCTGTTGCCT (site TGACGTCCTAG),0.253
22,TGACGTCCTTGGGTTCTAACCTGTTGCCT (site TGACGTCCTAT),0.057

row,Sequence,recombinant barcode read abundance (log10)
1,TGACGTCCTTGGGTTCTAACCTGTTGCGT (site TGACGTCCTAA),0.0894
2,TGACGTCCTTGGGTTCTAACCTGTTGCGT (site TGACGTCCTAC),1.72
3,TGACGTCCTTGGGTTCTAACCTGTTGCGT (site TGACGTCCTAG),0.0763
4,TGACGTCCTTGGGTTCTAACCTGTTGCGT (site TGACGTCCTAT),0.286
5,TGACGTTCTTGGGTTCTAACCTGTTGCCT (site TGACCTTCTAG),0.189
6,TGACGTTCTTGGGTTCTAACCTGTTGCCT (site TGACGTTCTAG),0.313
7,TGAGAGACTTGGGTTCTAACCTGTTGCGT (site ATGAGTCCTTT),0.0989
8,TGAGAGACTTGGGTTCTAACCTGTTGCGT (site TGAGAGACTAC),2.94
9,TGAGGTGCTTGGGTTCTAACCTGTTGCCT (site GGAGGGGCTAG),0.193
10,TGAGGTGCTTGGGTTCTAACCTGTTGCCT (site TGAGGTGCTAG),0.818
11,TGATCCACTTGGGTTCTAACCTGTTGCCT (site AGATCCACTAG),0.0667
12,TGATCCACTTGGGTTCTAACCTGTTGCCT (site CGATCCACTAG),0.0881
13,TGATCCACTTGGGTTCTAACCTGTTGCCT (site GGATCCACTAG),0.0751
14,TGATCCACTTGGGTTCTAACCTGTTGCCT (site TGATCCACTAG),0.596
15,TGATCTACTTGGGTTCTAACCTGTTGCTT (site TGATCTACTAA),0.0729
16,TGATCTACTTGGGTTCTAACCTGTTGCTT (site TGCTCTACTAA),0.0846
17,TGATCTACTTGGGTTCTAACCTGTTGCTT (site TGGTCTACTAA),0.0447
18,TGATCTACTTGGGTTCTAACCTGTTGCTT (site TGTTCTACTAA),0.0588
19,TGCAAGTCTTGGGTTCTAACCTGTTGCCT (site TGCAAGTCTAG),0.361
20,TGCAAGTCTTGGGTTCTAACCTGTTGCCT (site TGCGAGTCTAG),0.137
21,TGCACCTCTTGGGTTCTAACCTGTTGCTA (site CAATAGACTAG),0.0267
22,TGCACCTCTTGGGTTCTAACCTGTTGCTA (site TGCACCTCTTA),0.541

row,Sequence,recombinant barcode read abundance (log10)
1,TGCCAATCTTGGGTTCTAACCTGTTGCCT (site TGCCAATCTAG),0.242
2,TGCCAATCTTGGGTTCTAACCTGTTGCCT (site TTCCAATCTTG),0.0187
3,TGCCATCCTTGGGTTCTAACCTGTTGCAT (site AGCCATCCTAT),0.111
4,TGCCATCCTTGGGTTCTAACCTGTTGCAT (site TGCCATCCTAT),0.544
5,TGCCTCTCTTGGGTTCTAACCTGTTGCCT (site GGCTTCTCTAG),0.0915
6,TGCCTCTCTTGGGTTCTAACCTGTTGCCT (site TGCCTCTCTAG),0.172
7,TGCCTGCCTTGGGTTCTAACCTGTTGCAG (site ATAGAATCTGA),0.245
8,TGCCTGCCTTGGGTTCTAACCTGTTGCAG (site TGCCTGCCTCT),0.0105
9,TGCGAGTCTTGGGTTCTAACCTGTTGCCT (site TGCAAGTCTAG),0.626
10,TGCGAGTCTTGGGTTCTAACCTGTTGCCT (site TGCGAGTCTAG),1.12
11,TGCGCCACTTGGGTTCTAACCTGTTGCCT (site TGCGCAACTAG),0.113
12,TGCGCCACTTGGGTTCTAACCTGTTGCCT (site TGCGCCACTAG),0.517
13,TGCGCCACTTGGGTTCTAACCTGTTGCCT (site TGCGCGACTAG),0.0341
14,TGCGCCACTTGGGTTCTAACCTGTTGCCT (site TGCGCTACTAG),0.0797
15,TGCGTCACTTGGGTTCTAACCTGTTGCGT (site TGCGTCACTAC),1.56
16,TGCGTCACTTGGGTTCTAACCTGTTGCGT (site TGCGTTCCTAC),0.0906
17,TGCGTCGCTTGGGTTCTAACCTGTTGCCT (site AGCGTCGCTAG),0.149
18,TGCGTCGCTTGGGTTCTAACCTGTTGCCT (site TGCGTCGCTAG),0.687
19,TGCTAAGCTTGGGTTCTAACCTGTTGCTG (site TCCTAAGCTCC),0.288
20,TGCTAAGCTTGGGTTCTAACCTGTTGCTG (site TGCTAAGCTCA),0.16
